Consider 4 molecules from patent US10406146B2, “Heterocyclic compound” (TAKEDA PHARMACEUTICAL COMPANY LIMITED, priority 2015, dated 2019).

Type in all cases: biochemical
In assay [1] the target is T1, HDAC1 enzyme (Homo sapiens, UniProt Q13547).
T1 construct: transducing full length HDAC1 and HDAC6 genes into Sf-9 insect cells; GST; purchased SignalChem; host or cells: Sf-9 insect cells
The assay is described as follows: HDAC1 enzyme inhibitory assay (HDAC-Glo I/II Assay kit). As to conditions: wells without enzyme = 100% inhibition; for inhibition at 1 µM: read-out: HDAC1 inhibitory rate (%) (1 μM). Summed up:
(§1)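 Luminescence readout (HDAC-Glo I/II) after 20 min RT reaction of GST-purified full-length HDAC1 or HDAC6 (Sf-9 expressed) with substrate-developer; enzyme and compound preincubated 60 min RT; buffer 24 mM Tris-HCl pH 7.5, 0.6 mM glutathione, 0.01% Tween-20; no-enzyme wells = 100% inhibition.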

The target in assay [2] is T2, HDAC6 enzyme (Homo sapiens, UniProt Q9UBN7).
T2 construct: transducing full length HDAC1 and HDAC6 genes into Sf-9 insect cells; GST; purchased SignalChem; host or cells: Sf-9 insect cells
T2 sequence (Q9UBN7 1-1215): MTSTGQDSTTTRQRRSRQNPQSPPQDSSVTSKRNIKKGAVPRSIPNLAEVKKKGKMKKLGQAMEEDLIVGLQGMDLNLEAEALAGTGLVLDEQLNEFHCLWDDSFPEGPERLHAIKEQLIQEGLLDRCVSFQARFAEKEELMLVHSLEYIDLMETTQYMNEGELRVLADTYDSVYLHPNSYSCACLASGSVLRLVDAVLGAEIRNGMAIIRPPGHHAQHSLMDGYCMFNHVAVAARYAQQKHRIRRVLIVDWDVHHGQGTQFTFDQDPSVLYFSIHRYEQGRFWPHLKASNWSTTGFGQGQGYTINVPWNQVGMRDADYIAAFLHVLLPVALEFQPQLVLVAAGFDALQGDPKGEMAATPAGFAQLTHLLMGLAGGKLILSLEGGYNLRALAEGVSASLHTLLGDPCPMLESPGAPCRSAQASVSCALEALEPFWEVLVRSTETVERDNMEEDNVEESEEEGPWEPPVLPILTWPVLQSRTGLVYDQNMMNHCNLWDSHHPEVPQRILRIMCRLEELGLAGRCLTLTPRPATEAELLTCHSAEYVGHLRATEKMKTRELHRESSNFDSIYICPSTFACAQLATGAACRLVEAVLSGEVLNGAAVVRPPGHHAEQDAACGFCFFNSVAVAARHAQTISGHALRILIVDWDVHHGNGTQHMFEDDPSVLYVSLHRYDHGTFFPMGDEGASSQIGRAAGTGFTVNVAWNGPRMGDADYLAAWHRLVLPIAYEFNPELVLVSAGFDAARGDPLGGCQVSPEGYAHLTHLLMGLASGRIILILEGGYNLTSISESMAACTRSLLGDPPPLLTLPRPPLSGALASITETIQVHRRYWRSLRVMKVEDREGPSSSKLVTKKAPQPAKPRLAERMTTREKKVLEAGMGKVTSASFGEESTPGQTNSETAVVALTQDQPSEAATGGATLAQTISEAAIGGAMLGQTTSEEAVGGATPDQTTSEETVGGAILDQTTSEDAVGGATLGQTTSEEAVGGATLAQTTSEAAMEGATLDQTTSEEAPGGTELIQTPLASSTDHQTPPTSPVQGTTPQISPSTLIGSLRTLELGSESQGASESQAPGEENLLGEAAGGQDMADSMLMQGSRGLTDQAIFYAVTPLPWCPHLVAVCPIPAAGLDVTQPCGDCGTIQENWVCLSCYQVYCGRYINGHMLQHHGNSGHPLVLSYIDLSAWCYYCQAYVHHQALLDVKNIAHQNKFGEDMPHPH
Nature of the assay: HDAC6 enzyme inhibitory assay (HDAC-Glo I/II Assay kit). As to conditions: wells without enzyme = 100% inhibition; for inhibition at 1 µM: read-out: HDAC6 inhibitory rate (%) (1 μM). Summed up: as §1

The target in assay [3] is T3, HDAC9 enzyme (Homo sapiens, UniProt Q9UKV0).
T3 construct: transducing full length HDAC9 gene into Sf-9 insect cells; made in house; host or cells: Sf-9 insect cells
T3 sequence (Q9UKV0 whole entry, species assumed): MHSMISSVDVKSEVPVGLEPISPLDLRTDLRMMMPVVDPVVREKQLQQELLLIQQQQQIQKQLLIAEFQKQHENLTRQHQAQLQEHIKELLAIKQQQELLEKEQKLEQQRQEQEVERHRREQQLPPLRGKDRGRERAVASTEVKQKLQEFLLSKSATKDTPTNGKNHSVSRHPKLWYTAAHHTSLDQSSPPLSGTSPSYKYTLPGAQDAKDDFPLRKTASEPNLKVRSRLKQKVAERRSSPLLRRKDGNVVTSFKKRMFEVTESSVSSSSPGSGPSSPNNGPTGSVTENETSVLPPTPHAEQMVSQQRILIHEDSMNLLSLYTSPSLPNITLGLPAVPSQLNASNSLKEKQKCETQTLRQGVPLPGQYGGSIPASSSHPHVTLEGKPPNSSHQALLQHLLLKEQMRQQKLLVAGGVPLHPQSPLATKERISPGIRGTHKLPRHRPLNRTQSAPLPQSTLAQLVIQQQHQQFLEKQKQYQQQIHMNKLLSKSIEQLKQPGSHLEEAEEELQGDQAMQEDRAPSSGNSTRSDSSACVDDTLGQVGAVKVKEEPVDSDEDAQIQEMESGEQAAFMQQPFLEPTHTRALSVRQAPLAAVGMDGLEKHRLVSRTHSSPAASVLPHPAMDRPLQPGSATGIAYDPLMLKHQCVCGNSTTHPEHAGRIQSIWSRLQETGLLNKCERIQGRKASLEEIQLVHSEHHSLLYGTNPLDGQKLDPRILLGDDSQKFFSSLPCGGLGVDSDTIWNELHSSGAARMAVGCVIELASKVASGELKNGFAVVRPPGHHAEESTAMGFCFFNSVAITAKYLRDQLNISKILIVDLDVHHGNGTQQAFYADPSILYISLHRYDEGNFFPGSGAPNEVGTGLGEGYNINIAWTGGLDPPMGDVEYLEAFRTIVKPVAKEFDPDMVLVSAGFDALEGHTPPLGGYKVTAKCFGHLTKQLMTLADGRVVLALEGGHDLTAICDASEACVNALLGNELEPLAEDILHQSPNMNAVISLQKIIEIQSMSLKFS
Nature of the assay: HDAC9 enzyme inhibitory assay (HDAC-Glo class IIa). As to conditions: wells without enzyme = 100% inhibition; for inhibition at 1 µM: read-out: HDAC9 inhibitory rate (%) (1 μM). Summed up:
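Full-length human HDAC9 from Sf-9 cells, Ni-NTA purified, preincubated with compound for 60 min at room temperature in Tris-HCl pH 7.5 buffer (MgCl2, KCl, NaCl, glutathione, Tween-20). HDAC-Glo class IIa substrate-developer added; luminescence read after 20 min, with no-enzyme wells defining 100% inhibition.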

T1 sequence (Q13547 whole entry): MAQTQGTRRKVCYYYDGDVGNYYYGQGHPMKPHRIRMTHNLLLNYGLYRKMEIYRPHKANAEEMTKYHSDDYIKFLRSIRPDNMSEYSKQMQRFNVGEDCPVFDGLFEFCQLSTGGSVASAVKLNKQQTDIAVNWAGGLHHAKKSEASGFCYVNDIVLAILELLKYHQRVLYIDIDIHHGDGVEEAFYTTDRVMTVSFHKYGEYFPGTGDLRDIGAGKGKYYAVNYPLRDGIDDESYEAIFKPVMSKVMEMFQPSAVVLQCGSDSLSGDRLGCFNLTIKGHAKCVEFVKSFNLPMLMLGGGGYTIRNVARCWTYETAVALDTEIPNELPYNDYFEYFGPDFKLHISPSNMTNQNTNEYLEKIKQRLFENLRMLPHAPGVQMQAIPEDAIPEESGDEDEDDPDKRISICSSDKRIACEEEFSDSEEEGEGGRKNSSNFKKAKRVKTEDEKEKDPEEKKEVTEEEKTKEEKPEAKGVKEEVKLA

On to `CC(=O)N1CCC(C(=O)NCC2CCCCN2C(=O)Nc2ccc(-c3noc(C(F)(F)F)n3)cc2)CC1` (stereo not drawn) [Example 53, 2-((((1-acettylpiperidin-4-yl)carbonyl)amino)methyl)-N-(4-(5-(trifluoromethyl)-1,2,4-oxadiazol-3-yl)phenyl)piperidine-1-carboxamide], for which the “HDAC1 inhibitory rate (%) (1 μM)” value in assay [1] is 32%. Besides, the “HDAC6 inhibitory rate (%) (1 μM)” value in assay [2] is given as 7%. For the same molecule, the “HDAC9 inhibitory rate (%) (1 μM)” value in assay [3] is 94%.

Take `Cc1cc(C(=O)NCC2CCCCN2C(=O)Nc2ccc(-c3noc(C(F)(F)F)n3)cc2)ccn1` (stereo not drawn) [Example 57, 2-methyl-N-((1-((4-(5-(trifluoromethyl)-1,2,4-oxadiazol-3-yl)phenyl)carbamoyl)piperidin-2-yl)methyl)isonicotinamide]: the inhibition at 1 µM in assay [1] was 38%; in assay [2] it was 6%; in assay [3], 94%.

Consider `O=C(NCC1CCCCN1C(=O)Nc1ccc(-c2noc(C(F)(F)F)n2)cc1)c1ccc(O)cc1` (stereo not drawn) [Example 27, 2-(((4-hydroxybenzoyl)amino)methyl)-N-(4-(5-(trifluoromethyl)-1,2,4-oxadiazol-3-yl)phenyl)piperidine-1-carboxamide], for which the inhibition at 1 µM in assay [1] turned out to be 37%; in assay [2], 3%; in assay [3], 93%.

With `O=C(NCC1CCCCN1C(=O)Nc1ccc(-c2noc(C(F)(F)F)n2)cc1)C1CCCCC1` (stereo not drawn) [Example 50], in assay [1], the “HDAC1 inhibitory rate (%) (1 μM)” value turned out to be 79%. In assay [2], the “HDAC6 inhibitory rate (%) (1 μM)” value was determined as 7%. Besides, in assay [3], the “HDAC9 inhibitory rate (%) (1 μM)” value was determined as 95%.
